Source: patent US4749712A, “Antiinflammatory and/or analgesic 5-alkylthiophenes” (E. I. Du Pont de Nemours and Company, priority 1984, dated 1988)
Read-outs that look alike come from different tables or passages of the source.

Key:
[1] = system: adjuvant-induced arthritis in rats; experiment: Established Adjuvant-Induced Arthritis in Rats; format: in vivo, rat (male Charles River Lewis); conditions: for ED50: 24 h, read-out: Adjuvant Arthritis ED50 (effective dose for 50% decrease from control paw volume)
[2] = system: phenylquinone writhing in mice; experiment: Phenylquinone Writhing Test (analgesic activity); format: in vivo, mouse (female white mice); conditions: read-out: Phenylquinone Writhing (PQW) ED50 (effective analgesic dose for 50% of the mice)
Description: Phenylquinone Writhing Test
A test compound suspended in 1% methylcellulose was given orally to fasted (17-21 hours) female white mice, 5-20 animals per double blind test. Aqueous (0.01% phenyl-p-benzoquinone) phenylquinone, 0.20 ml per mouse, was injected intraperitoneally 6 minutes before observations were begun.

[3] = rat, oral gavage, 7 daily doses, paw volume one day after last dose
[4] = mouse, oral, phenylquinone i.p. 6 minutes before 10 minutes observation

SMILES	ED50 ([1]; Rattus norvegicus, po) [mg/kg]	ED50 [1, 3] [mg/kg]	ED50 [2, 4] [mg/kg]	percent reduction in paw volume at the indicated dose ([1]; rat, oral gavage, 7 daily doses, at 45 mg/kg) [%]	ED50 ([2]; Mus musculus, po) [mg/kg]
CC(=O)Oc1ccccc1C(=O)O [Aspirin, reference compound]	305				
COc1ccc(-c2cc(C)sc2-c2ccc(OC)cc2)cc1 [Example 1, 5-Methyl-2,3-bis(4-methoxyphenyl)thiophene]		60	78		
CCC(C)c1cc(-c2ccc(OC)cc2)c(-c2ccc(OC)cc2)s1 (stereo not drawn) [Example 2, 5-(1-Methylpropyl)-2,3-bis(4-methoxyphenyl)thiophene]		29	5.5		
COc1ccc(-c2cc(C3CCCCC3)sc2-c2ccc(OC)cc2)cc1 [Example 3, 5-Cyclohexyl-2,3-bis(4-methoxyphenyl)thiophene]			47	34	
COc1ccc(-c2cc(C(C)(C)C)sc2-c2ccc(OC)cc2)cc1 [Example 4, 5-(1,1-Dimethylethyl)-2,3-bis(4-methoxyphenyl)thiophene]		36	1.4		
CC(C)Cc1ccc(C(C)C(=O)O)cc1 (stereo not drawn) [Ibuprofen, reference compound]		100	10		
COc1ccc2c(c1)c(CC(=O)O)c(C)n2C(=O)c1ccc(Cl)cc1 [Indomethacin, reference compound]	0.3				0.35
CCCCC1C(=O)N(c2ccccc2)N(c2ccccc2)C1=O [Phenylbutazone, reference compound]		10	80		
